# Tests used:
# porcine insulin = biological target: T1, porcine insulin (Sus scrofa, UniProt P01315); test: DSF thermal stability assay, porcine insulin; conditions: insulin 129 µM, solute 0.1 and 0.25 M (FIG. 11)
# T1 construct: solutions comprising porcine insulin at a concentration of 129 µM
# lysozyme = biological target: T2, lysozyme (Gallus gallus, UniProt P00698); test: DSF thermal stability assay, lysozyme; design: species or system hen
# T2 construct: hen egg white lysozyme was purchased from Sigma-Aldrich; purchased Sigma-Aldrich; host or cells: hen egg white
# T2 sequence (P00698 19-147): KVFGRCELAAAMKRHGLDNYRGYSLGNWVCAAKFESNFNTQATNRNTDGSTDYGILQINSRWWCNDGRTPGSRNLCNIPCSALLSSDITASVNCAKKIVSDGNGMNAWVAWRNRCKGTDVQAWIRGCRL
# Protocol: The DSF based stability assays were performed at each protein working pH and the melting temperatures (TM) values determined in the absence (control experiments) and in the presence of solutes, and at different solute concentrations. The denaturation curves for each assay were analysed, and the melting temperatures determined by the calculation of the first derivative, which corresponds to the midpoint temperature of the protein-unfolding transition. […] The unfolding temperature shifts (ΔTM) were calculated by comparing the TM values obtained in the presence of solutes with the TM values of the control experiments (absence of solutes).
# Mitochondrial malate dehydrogenase from pig heart (MDII) was purchased from Roche, and hen egg white lysozyme was purchased from Sigma-Aldrich. These enzymes were used without further purification.
# The protein melting temperature (TM) determination was performed by monitoring protein unfolding with the fluoroprobe SYPRO Orange dye (Molecular Probes), which although completely quenched in aqueous environment, emits fluorescence upon binding to protein hydrophobic patches. Such increase in fluorescence can be measured as a function of temperature using Differential Scanning Fluorimetry. In a typical assay with a total volume of 20 µL, a protein concentration from 0.14 to 0.21 mg/mL, and a dye concentration of 5 fold were used to guarantee the best signal to noise ratio. Protein stock solutions of SNase or MDH were prepared in phosphate buffer (20 mM of sodium phosphate, pH 7.6), and lysozyme was prepared in citrate buffer (40 mM sodium citrate, 110 mM NaCl, pH 6.0). These stock solutions were extensively dialyzed against the same buffer before the assays. […] Solute solutions were prepared in water with the respective concentrations. […] Fluorescence intensities versus temperature are used to calculate the protein melting temperature (TM) by determining the first derivative (d(Rfu)/dT) to extract the exact transition inflection point.
# [1] = biological target: T3, staphylococcal nuclease (SNase) (Staphylococcus aureus, UniProt P00644); test: DSF thermal stability assay, staphylococcal nuclease; conditions: solute 0.1, 0.25 and 0.5 M (FIG. 8)
# T3 construct: Recombinant staphylococcal nuclease A (SNase) was produced and purified from Escherichia coli cells; made in house; host or cells: Escherichia coli
# Protocol: (§1) The DSF based stability assays were performed at each protein working pH and the melting temperatures (TM) values determined in the absence (control experiments) and in the presence of solutes, and at different solute concentrations. The denaturation curves for each assay were analysed, and the melting temperatures determined by the calculation of the first derivative, which corresponds to the midpoint temperature of the protein-unfolding transition. In the absence of solutes, malate dehydrogenase (MDH), staphylococcal nuclease (SNase) and lysozyme have melting temperatures (TM) of 50, 52 and 71° C. respectively. The unfolding temperature shifts (ΔTM) were calculated by comparing the TM values obtained in the presence of solutes with the TM values of the control experiments (absence of solutes).
# (§2) Mannosylglycerate (MG), glucosylglycerate (GG), glucosylglucosylglycerate (GGG), mannosyl glycolate (MGly) and mannosyl lactate (ML) were obtained by chemical synthesis as described in literature (Costa 1998). New synthetic compounds were obtained by chemical synthesis as described in Example 1. […] Purity and concentration of the compounds was assessed by ^1H NMR spectra obtained at 500 MHz spectrometer in D2O. For quantification purposes, spectra were acquired with a repetition delay of 60 s with formate as concentration standard. […]
# [2] = biological target: T4, malate dehydrogenase (MDH) (Sus scrofa, UniProt P00346); test: DSF thermal stability assay, malate dehydrogenase; design: species or system pig; conditions: solute 0.1, 0.25 and 0.5 M (FIG. 9)
# T4 construct: Mitochondrial malate dehydrogenase from pig heart (MDII) was purchased from Roche; purchased Roche; host or cells: pig heart
# T4 sequence (P00346 25-338): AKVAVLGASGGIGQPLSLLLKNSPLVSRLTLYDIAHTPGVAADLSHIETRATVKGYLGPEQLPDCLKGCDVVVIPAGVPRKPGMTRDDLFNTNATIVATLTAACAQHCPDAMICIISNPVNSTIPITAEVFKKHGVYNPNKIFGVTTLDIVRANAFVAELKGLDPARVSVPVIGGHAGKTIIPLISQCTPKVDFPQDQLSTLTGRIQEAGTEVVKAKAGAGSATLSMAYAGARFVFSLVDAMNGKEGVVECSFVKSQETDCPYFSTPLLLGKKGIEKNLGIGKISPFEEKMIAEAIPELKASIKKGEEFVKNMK
# Protocol: as §1, §2
# T1 sequence (P01315 25-54 limits assumed): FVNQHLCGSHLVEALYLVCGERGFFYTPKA
# T1 sequence (P01315 88-108 limits assumed): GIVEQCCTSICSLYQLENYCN
compound,measurement,setting,value
"O=C([O-])COC1O[C@H](CO)[C@@H](O)[C@H](O)[C@H]1O.[K+] (stereo partly drawn) [glucosyl glycolate, Potassium 2-(α/β-D-glucopyranosyl) acetate]",increment in melting temperature of porcine insulin,porcine insulin,highest increases in melting temperature
"CC(=O)[O-].[K+] [AcOK, potassium acetate]",stabilising effect of AcOK alone on lysozyme,"lysozyme; AcOK alone, concentration dependence (FIG. 6)","not a good stabiliser, stabilising only at high salt concentrations"
same,stabilising effect of AcOK on lysozyme in conjugation with hypersolutes,lysozyme; AcOK with hypersolutes (0.5 M) (FIG. 6),able to enhance their stabilisation properties
Potassium (2S) -2-0- (α/β-D-galactopyranosyl)-2-hydroxysuccinate [α-galactosyl malate],dependence of lysozyme melting temperature on the concentration of solutes,"lysozyme; solute 0.1, 0.25 and 0.5 M (FIG. 10)",clearly the best stabiliser
same,dependence of SNase melting temperature on the concentration of solutes,[1],clearly the best stabiliser
Potassium (2S)-2-O-(α/β-D-glucopyranosyl)-2-hydroxysuccinate [glucosyl malate],increment in melting temperature of porcine insulin,porcine insulin,highest increases in melting temperature
same,dependence of MDH melting temperature on the concentration of solutes,[2],the best stabiliser

# Reference: patent publication US20230357301A1, “HEXOSE DERIVATIVES, PREPARATION AND USES THEREOF” (Faculdade de Ciencias da Universidade de Lisboa, priority 2014, published 2023)
